Results taken from the supplement of paper PMC10307832.

Legend:
Experiment in all cases: relative viability (nuclei count vs DMSO), 5 days (fraction); higher = more cells survive
HCC-366 = system: HCC-366
Procedure, shortened: (§1)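 Lung cancer cell lines, seeded in 1536-well plates, were treated the following day by pin tool with a single drug or with five library-drug doses (not always all listed) in √10 steps on top of a fixed anchor-drug dose. Cells were fixed and nuclei stained in one step after 5 days, and nuclei were counted. Relative viability is the nuclei count for treated wells divided by that for vehicle wells, reported as medians of duplicate plates.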

A549 = system: A549
Procedure, shortened: as §1

NCI-H1437 = system: NCI-H1437
Procedure, shortened: as §1

EBC-1 = system: EBC-1
Procedure, shortened: as §1

Calu-6 = system: Calu-6
Procedure, shortened: as §1

IA-LM = system: IA-LM
Procedure, shortened: as §1

NCI-H1299 = system: NCI-H1299
Procedure, shortened: as §1

HCC-44 = system: HCC-44
Procedure, shortened: as §1

NCI-H1703 = system: NCI-H1703
Procedure, shortened: as §1

C=C1C(=O)O[C@@H](CCCCCCCC)[C@@H]1C(=O)O [C-75] + CS(=O)(=O)CCNCc1ccc(-c2ccc3ncnc(Nc4ccc(OCc5cccc(F)c5)c(Cl)c4)c3c2)o1 [Lapatinib] (partner 2 µM)
relative viability (HCC-366; first compound 0.08 µM): 1.04
relative viability (HCC-366; first compound 0.253 µM): 1.19
relative viability (HCC-366; first compound 0.8 µM): 1
relative viability (HCC-366; first compound 8 µM): 0.872
relative viability (A549; first compound 0.08 µM): 1.01
relative viability (A549; first compound 0.253 µM): 1.1
relative viability (A549; first compound 0.8 µM): 0.798
relative viability (A549; first compound 2.53 µM): 0.937
relative viability (A549; first compound 8 µM): 0.89
relative viability (NCI-H1437; first compound 0.08 µM): 0.757
relative viability (NCI-H1437; first compound 0.253 µM): 0.785
relative viability (NCI-H1437; first compound 0.8 µM): 0.746
relative viability (NCI-H1437; first compound 2.53 µM): 0.754
relative viability (NCI-H1437; first compound 8 µM): 0.712
relative viability (EBC-1; first compound 0.08 µM): 0.259
relative viability (EBC-1; first compound 0.253 µM): 0.237
relative viability (EBC-1; first compound 0.8 µM): 0.18
relative viability (EBC-1; first compound 2.53 µM): 0.243
relative viability (EBC-1; first compound 8 µM): 0.224
relative viability (Calu-6; first compound 0.08 µM): 1.03
relative viability (Calu-6; first compound 0.253 µM): 1.06
relative viability (Calu-6; first compound 0.8 µM): 1.04
relative viability (Calu-6; first compound 2.53 µM): 0.894
relative viability (Calu-6; first compound 8 µM): 0.925
relative viability (IA-LM; first compound 0.08 µM): 0.816
relative viability (IA-LM; first compound 0.253 µM): 0.954
relative viability (IA-LM; first compound 8 µM): 0.476
relative viability (NCI-H1299; first compound 0.08 µM): 0.971
relative viability (NCI-H1299; first compound 0.253 µM): 1
relative viability (NCI-H1299; first compound 0.8 µM): 0.935
relative viability (NCI-H1299; first compound 2.53 µM): 0.946
relative viability (NCI-H1299; first compound 8 µM): 0.955
relative viability (HCC-44; first compound 0.08 µM): 0.943
relative viability (HCC-44; first compound 0.253 µM): 0.963
relative viability (HCC-44; first compound 0.8 µM): 0.943
relative viability (HCC-44; first compound 2.53 µM): 0.946
relative viability (HCC-44; first compound 8 µM): 0.962
relative viability (NCI-H1703; first compound 0.08 µM): 1.17
relative viability (NCI-H1703; first compound 0.8 µM): 0.977
relative viability (NCI-H1703; first compound 2.53 µM): 1.17
relative viability (NCI-H1703; first compound 8 µM): 0.888

C=C1C(=O)O[C@@H](CCCCCCCC)[C@@H]1C(=O)O [C-75] + CS(=O)(=O)N1CCN(Cc2cc3nc(-c4cccc5[nH]ncc45)nc(N4CCOCC4)c3s2)CC1 [Pictilisib] (partner 1 µM)
relative viability (HCC-366; first compound 0.08 µM): 0.238
relative viability (HCC-366; first compound 0.253 µM): 0.165
relative viability (HCC-366; first compound 0.8 µM): 0.152
relative viability (HCC-366; first compound 2.53 µM): 0.264
relative viability (HCC-366; first compound 8 µM): 0.148
relative viability (A549; first compound 0.08 µM): 0.475
relative viability (A549; first compound 0.253 µM): 0.571
relative viability (A549; first compound 0.8 µM): 0.514
relative viability (A549; first compound 2.53 µM): 0.309
relative viability (A549; first compound 8 µM): 0.497
relative viability (NCI-H1437; first compound 0.08 µM): 0.489
relative viability (NCI-H1437; first compound 0.253 µM): 0.402
relative viability (NCI-H1437; first compound 0.8 µM): 0.464
relative viability (NCI-H1437; first compound 2.53 µM): 0.472
relative viability (NCI-H1437; first compound 8 µM): 0.491
relative viability (EBC-1; first compound 0.08 µM): 0.43
relative viability (EBC-1; first compound 0.253 µM): 0.355
relative viability (EBC-1; first compound 0.8 µM): 0.315
relative viability (EBC-1; first compound 2.53 µM): 0.361
relative viability (EBC-1; first compound 8 µM): 0.179
relative viability (Calu-6; first compound 0.08 µM): 0.985
relative viability (Calu-6; first compound 0.253 µM): 1.07
relative viability (Calu-6; first compound 0.8 µM): 0.811
relative viability (Calu-6; first compound 2.53 µM): 0.714
relative viability (Calu-6; first compound 8 µM): 0.817
relative viability (IA-LM; first compound 0.08 µM): 0.448
relative viability (IA-LM; first compound 0.253 µM): 0.294
relative viability (IA-LM; first compound 0.8 µM): 0.266
relative viability (IA-LM; first compound 2.53 µM): 0.358
relative viability (IA-LM; first compound 8 µM): 0.375
relative viability (NCI-H1299; first compound 0.08 µM): 0.785
relative viability (NCI-H1299; first compound 0.253 µM): 0.825
relative viability (NCI-H1299; first compound 0.8 µM): 0.737
relative viability (NCI-H1299; first compound 2.53 µM): 0.826
relative viability (NCI-H1299; first compound 8 µM): 0.634
relative viability (HCC-44; first compound 0.08 µM): 0.65
relative viability (HCC-44; first compound 0.253 µM): 0.599
relative viability (HCC-44; first compound 0.8 µM): 0.558
relative viability (HCC-44; first compound 2.53 µM): 0.622
relative viability (HCC-44; first compound 8 µM): 0.644
relative viability (NCI-H1703; first compound 0.08 µM): 0.247
relative viability (NCI-H1703; first compound 0.253 µM): 0.266
relative viability (NCI-H1703; first compound 0.8 µM): 0.235
relative viability (NCI-H1703; first compound 2.53 µM): 0.214
relative viability (NCI-H1703; first compound 8 µM): 0.249

C=C1C(=O)O[C@@H](CCCCCCCC)[C@@H]1C(=O)O [C-75] + C[C@@H](Oc1cc(-c2cnn(C3CCNCC3)c2)cnc1N)c1c(Cl)ccc(F)c1Cl [Crizotinib] (partner 1 µM)
relative viability (HCC-366; first compound 0.08 µM): 0.508
relative viability (HCC-366; first compound 0.253 µM): 0.76
relative viability (HCC-366; first compound 0.8 µM): 0.5
relative viability (HCC-366; first compound 8 µM): 0.509
relative viability (A549; first compound 0.08 µM): 0.763
relative viability (A549; first compound 0.253 µM): 0.715
relative viability (A549; first compound 0.8 µM): 0.651
relative viability (A549; first compound 2.53 µM): 0.81
relative viability (A549; first compound 8 µM): 0.593
relative viability (NCI-H1437; first compound 0.08 µM): 0.859
relative viability (NCI-H1437; first compound 0.253 µM): 0.968
relative viability (NCI-H1437; first compound 0.8 µM): 0.936
relative viability (NCI-H1437; first compound 2.53 µM): 0.983
relative viability (NCI-H1437; first compound 8 µM): 0.936
relative viability (EBC-1; first compound 0.08 µM): 0.179
relative viability (EBC-1; first compound 0.253 µM): 0.184
relative viability (EBC-1; first compound 0.8 µM): 0.225
relative viability (EBC-1; first compound 2.53 µM): 0.179
relative viability (EBC-1; first compound 8 µM): 0.211
relative viability (Calu-6; first compound 0.08 µM): 0.816
relative viability (Calu-6; first compound 0.253 µM): 0.824
relative viability (Calu-6; first compound 0.8 µM): 0.711
relative viability (Calu-6; first compound 2.53 µM): 0.623
relative viability (Calu-6; first compound 8 µM): 0.761
relative viability (IA-LM; first compound 0.08 µM): 0.956
relative viability (IA-LM; first compound 0.253 µM): 1.09
relative viability (IA-LM; first compound 8 µM): 0.504
relative viability (NCI-H1299; first compound 0.08 µM): 0.939
relative viability (NCI-H1299; first compound 0.253 µM): 0.932
relative viability (NCI-H1299; first compound 0.8 µM): 0.967
relative viability (NCI-H1299; first compound 2.53 µM): 0.853
relative viability (NCI-H1299; first compound 8 µM): 0.927
relative viability (HCC-44; first compound 0.08 µM): 0.787
relative viability (HCC-44; first compound 0.253 µM): 0.815
relative viability (HCC-44; first compound 0.8 µM): 0.795
relative viability (HCC-44; first compound 2.53 µM): 0.659
relative viability (HCC-44; first compound 8 µM): 0.719
relative viability (NCI-H1703; first compound 0.08 µM): 0.688
relative viability (NCI-H1703; first compound 0.8 µM): 0.495
relative viability (NCI-H1703; first compound 2.53 µM): 0.683
relative viability (NCI-H1703; first compound 8 µM): 0.587
